Experimental data published in patent US7745390B2, “Antimicrobial peptides” (priority 2005, dated 2010).
Square brackets hold non-standard residues; d marks the D form. Ends that are not written are not given here. Peptide text beside a SMILES is read from it.

Experiments:
B. cereus = assay type: cell-based; conditions: pH 7.2
In short: (§1)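 First, peptides in 10 mM phosphate pH 7.2 with 0.03% LB meet bacteria (~5×10^6 CFU/ml). Second, incubation runs 3 h at 37 °C. Third, LB is added and plates grow overnight before OD600 reading.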

E. coli DH5a = assay type: cell-based; conditions: DH5a, pH 7.2
In short: as §1

Salmonella = assay type: cell-based, S. typhimurium; conditions: pH 7.2
In short: as §1

bacteria [1] = experiment: Activity in DMEM and RPMI media (lysis of bacteria); assay type: cell-based; design: key to Active in DMEM: YES: Active in DMEM; a blank means no activity; conditions: for Active in DMEM: Table 2, tested in DMEM and RPMI; for antimicrobial / antibacterial activity: medium not stated
Method: (§2) The CFU assay is the “gold standard” for evaluating antibiotics. Briefly, bacteria are grown overnight in rich medium, such as LB, and then diluted and grown in log phase for 2-4 hours. Cultures are set up as above, with the initial culture media being 10 mM phosphate buffer/0.03% LB; DMEM or RPMI; or DMEM or RPMI plus 10% serum (fetal calf, human, or mouse). After various periods of time, but generally 3 hours or less, aliquots are removed, diluted in LB at various dilutions, and plated on LB agar plates. Plates are incubated overnight at 37° C. and counted on an automatic colony counter.
In the column “Active in DMEM”, a blank means no activity. MAP stands for multiple antigenic peptide, where a number of identical peptide chains are synthesized and joined to a common core (like a dendrimer).
The peptides listed in Table 2 were tested in DMEM and RPMI, media that approximate blood and tissue conditions in vivo and those that were active under these conditions are listed in the last column (active in DMEM). […] No peptides that were all L-isomer peptides lysed bacteria in DMEM supplemented with serum.
The hydrophobic moment is a measure of amphipathicity and indicates how well the hydrophobic residues fall on one side of the helix while the hydrophilic residues fall on the opposite side is shown in column 7. This was determined using the Membrane Explorer Program (http://blanco.biomol.uci.edu/mpex/). A high number indicates a high hydrophobic moment. Column 8 again (like Table 2) indicates which of these peptides is active in DMEM.

bacteria [2] = experiment: Activity in serum containing media (10% FCS in DMEM or RPMI); assay type: cell-based; conditions: 10% FCS in DMEM or RPMI
Method: as §2
Tests were conducted in low salt concentrations so that active peptide candidates could be identified more readily. It is important for in vivo applications that the present antimicrobial peptides be active in physiological salt concentrations (150 mM) as well as in the presence of other tissue components, such as blood plasma (serum). Serum may contain proteases that destroy peptides; the use of D-amino acids can improve protease resistance. See G12.21. […] Also active were G11.6, G11.26, G11.29, G11.30, G11.34, G11.35, G12.11, G12.19, G12.20 and G12.21. […]

Row | Molecule | B. cereus MIC (B. cereus) | IC50 (B. cereus) | E. coli DH5a MIC (E. coli DH5a) | IC50 (E. coli DH5a) | IC50 (Salmonella) | Salmonella MIC (Salmonella) | Active in DMEM (bacteria [1]) | active in serum containing media (bacteria [2]) | antimicrobial / antibacterial activity (bacteria [1])
1 | CSCC[C@H](NC(=O)[C@H](Cc1ccccc1)NC(=O)[C@@H](CCCNC(=N)N)NC(=O)[C@@H](CCCNC(=N)N)NC(=O)[C@H](CO)NC(=O)[C@@H](NC(=O)[C@H](CC(=O)O)NC(=O)[C@H](CCCNC(=N)N)NC(=O)[C@H](Cc1c[nH]c2ccccc12)NC(=O)[C@H](CCCNC(=N)N)NC(=O)[C@H](CO)NC(=O)[C@H](CCCNC(=N)N)NC(=O)CNC(=O)[C@@H](NC(=O)[C@H](CCCNC(=N)N)NC(=O)[C@H](CO)NC(=O)[C@@H](NC(=O)[C@H](CCCNC(=N)N)NC(=O)[C@@H](NC(=O)[C@@H](C)NC(=O)[C@@H](C)NC(=O)[C@H](CCCNC(=N)N)NC(=O)[C@H](CO)NC(=O)[C@@H](NC(=O)[C@H](CO)NC(=O)[C@H](CCCNC(=N)N)NC(=O)[C@@H](N)CCC(N)=O)C(C)C)[C@@H](C)O)C(C)C)[C@@H](C)O)C(C)C)C(=O)N[C@@H](CCCNC(=N)N)C(=O)N[C@@H](CCCNC(=N)N)C(=O)O [Peptide G8.8, QRSVSRaaTRVSRTGRSRWRDVSrrFMRR] (H-QRSVSR[dA][dA]TRVSRTGRSRWRDVS[dR][dR]FMRR-OH; N-terminus and C-terminus assumed) | 2.5 µM | 1.7 µM | 0.35 µM | 0.21 µM | 0.42 µM | 0.7 µM | YES | active | 
2 | QRSVSRPPTRVSRTGRSRWRDVSRRFMRR [Peptide G8.12] | 0.35 µM | 0.21 µM | 0.35 µM | 0.21 µM | 0.21 µM | 0.35 µM | YES |  | 
3 | QRSVSRAATRVSRTGRSRWRRVSRRFMRR [Peptide G8.9] | 0.7 µM | 0.45 µM | 0.7 µM | 0.45 µM | 0.22 µM | 0.35 µM | YES |  | 
4 | CSCC[C@@H]1NC(=O)[C@H](Cc2ccccc2)NC(=O)[C@H](CCCCN)NC(=O)[C@H](CCCCN)NC(=O)[C@H](CO)NC(=O)[C@H](C(C)C)NC(=O)[C@H](CCCCN)NC(=O)[C@H](CCCCN)NC(=O)[C@H](CC(N)=O)NC(=O)[C@H](CCCCN)NC(=O)[C@H](CCCCN)NC(=O)[C@H](CCSC)NC(=O)[C@H](Cc2ccccc2)NC(=O)[C@H](CCCCN)NC(=O)[C@H](CCCCN)NC(=O)[C@H](CO)NC(=O)[C@H](C(C)C)NC(=O)[C@H](CCCCN)NC(=O)[C@H](CCCCN)NC(=O)[C@H](CO)NC(=O)CNC(=O)[C@H](CCCCN)NC(=O)[C@H](CCCCN)NC1=O [G11.32 CYC] | 0.35 µM | 0.21 µM | 0.35 µM | 0.2 µM | 0.21 µM | 0.35 µM | YES |  | 
5 | CC(C)C[C@@H](NC(=O)[C@@H](CCCNC(=N)N)NC(=O)[C@@H](CCCNC(=N)N)NC(=O)[C@H]1CCCN1C(=O)[C@@H](CCCNC(=N)N)NC(=O)[C@@H](CCCNC(=N)N)NC(=O)[C@@H](CO)NC(=O)[C@@H](CCCNC(=N)N)NC(=O)[C@@H](Cc1ccc(O)cc1)NC(=O)[C@@H](CCCNC(=N)N)NC(=O)[C@@H](CCCNC(=N)N)NC(=O)[C@H]1CCCN1C(=O)[C@H]1CCCN1C(=O)[C@H]1CCCN1C(=O)[C@@H](CCCNC(=N)N)NC(=O)[C@@H](CO)NC(=O)[C@H](NC(=O)[C@@H](CCCNC(=N)N)NC(=O)[C@H](N)CCCNC(=N)N)C(C)C)C(=O)N[C@@H](C(=O)O)C(C)C [Peptide G12.25, rrvsrppprryrsrrprrlv] (H-[dR][dR][dV][dS][dR][dP][dP][dP][dR][dR][dY][dR][dS][dR][dR][dP][dR][dR][dL][dV]-OH; N-terminus and C-terminus assumed) | <.078 µM | < 0.078 µM | 0.15 µM | < 0.078 µM | 0.1 µM | 1.25 µM | YES |  | has lost much of its antibacterial activity
6 | RRVSRRFMRRD-NH2 [G11.30 CYC, RRVSRRFMRRD] | >10 µM | 7.55 µM | 5.7 µM | 3.5 µM | 7.7 µM | >10 µM |  | active | 
7 | CSCC[C@@H](NC(=O)[C@H]1CCCN1C(=O)[C@H]1CCCN1C(=O)[C@@H](CCCNC(=N)N)NC(=O)[C@@H](CO)NC(=O)[C@H](NC(=O)[C@@H](CCCNC(=N)N)NC(=O)[C@H](N)CCCNC(=N)N)C(C)C)C(=O)N[C@H](CCCNC(=N)N)C(=O)N[C@H](CCCNC(=N)N)C(=O)N[C@H](Cc1ccc(O)cc1)C(=O)N[C@H](CCCNC(=N)N)C(=O)N[C@H](CO)C(=O)N[C@H](CCCNC(=N)N)C(=O)N[C@H](CCCNC(=N)N)C(=O)N1CCC[C@@H]1C(=O)N[C@H](CCCNC(=N)N)C(=O)N[C@H](CCCNC(=N)N)C(=O)N[C@H](CC(C)C)C(=O)N[C@@H](C(=O)O)C(C)C [Peptide G12.26, rrvsrppmrryrsrrprrlv] (H-[dR][dR][dV][dS][dR][dP][dP][dM][dR][dR][dY][dR][dS][dR][dR][dP][dR][dR][dL][dV]-OH; N-terminus and C-terminus assumed) | 0.35 µM | < 0.078 µM | <.078 µM | < 0.078 µM | 0.1 µM | 0.3 µM | YES |  | loses some antibacterial activity compared to G12.21
8 | CSCC[C@@H](NC(=O)[C@H]1CCCN1C(=O)[C@@H](CCCCN)NC(=O)[C@@H](CCCCN)NC(=O)[C@@H](CO)NC(=O)[C@H](NC(=O)[C@@H](CCCCN)NC(=O)[C@H](N)CCCCN)C(C)C)C(=O)N[C@H](CCCCN)C(=O)N[C@H](CCCCN)C(=O)N[C@H](Cc1ccc(O)cc1)C(=O)N[C@H](CCCCN)C(=O)N[C@H](CO)C(=O)N[C@H](CCCCN)C(=O)N[C@H](CCCCN)C(=O)N1CCC[C@@H]1C(=O)N[C@H](CCCCN)C(=O)N[C@H](CCCCN)C(=O)N[C@H](CC(C)C)C(=O)N[C@@H](C(=O)O)C(C)C [Peptide G12.28, kkvskkpmkkykskkpkklv] (H-[dK][dK][dV][dS][dK][dK][dP][dM][dK][dK][dY][dK][dS][dK][dK][dP][dK][dK][dL][dV]-OH; N-terminus and C-terminus assumed) |  |  |  |  |  |  |  |  | inactive peptide
9 | GRSRWRRVSRRFMRR [Peptide G14.11, GRSRWRRVSRRFMRR] | 0.7 µM | 0.45 µM | 0.7 µM | 0.45 µM | 0.44 µM | 0.65 µM | YES |  | 
